From patent US12653772B2, “Use of a rosebush extract as depigmenting active agent” (L'OREAL, priority 2020, dated 2026)

Test system: reconstructed pigmented Episkin model
Experiment: Depigmenting effect by topical application on the reconstructed pigmented Episkin model; melanin quantified by image analysis of Fontana-Masson stained sections
Format: cell-based
Details: DMSO control 569.02
Description: The results of the evaluation are compared to those of the solvent (DMSO) control and of a reference whitening active agent (Lucinol).
The histological quality of the epidermis after treatment was evaluated on the HES-stained histological section in order to determine the effect of the treatment on the epidermis.
The melanocyte physiology was also evaluated in order to detect melanocyte cytotoxicity.
The melanin present in the PRE is stained on the histological slide (Fontana-Masson staining) and then quantified by image analysis.
Each epidermis slide is digitized using Nanozoomer®.
For each epidermis, about 10˜15 images are extracted (white light, magnification ×20).
The area occupied by melanin is quantified using the Histolab® software.
Two parameters, namely graphic comparison (box-plot) and p value significance (Mann-Whitney U test), were applied to the interpretation of the statistical results.
Up to 6 repetitions were calculated for each treatment group.
The statistical significance between the test groups and the corresponding solvent controls was determined using the non-parametric Mann-Whitney U test (n=6).
The statistical significance is defined if the p value is less than 0.05. […]
The area occupied by melanin is quantified using the Histolab® software and is represented by the mean pixel number per image. […]

CCCCc1ccc(O)cc1O [Lucinol]
Mean pixel number/image (area occupied by melanin) (300 μM): 394.69 | Mean pixel number/image (area occupied by melanin) (500 μM): 467.76
